The supplement of paper PMC10307832

Experiments:
Test in all cases: relative viability (nuclei count vs DMSO), 5 days (fraction); higher = more cells survive
[1] = compound: Nc1nc2[nH]cc(CCc3ccc(C(=O)N[C@@H](CCC(=O)O)C(=O)O)cc3)c2c(=O)[nH]1 [Pemetrexed] + O=C(CCCCCCC(=O)Nc1ccccc1)NO [Vorinostat] (partner 1 µM)
How it was run: (§1)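 Relative viability divides the nuclei count in treated wells by that in vehicle wells. Lung cancer cell lines were seeded in 1536-well plates, dosed by pin tool the next day, and fixed and stained after 5 days in one step with final 0.05% Triton X-100, 1% formaldehyde and 1 ug/ml Hoechst. Dosing was a single drug or a fixed anchor-drug dose plus five library-drug doses (not always all listed) in √10 steps, and values are medians of duplicate plates imaged at 4×.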

[2] = compound: CC[C@H](Nc1ncnc2[nH]cnc12)c1nc2cccc(F)c2c(=O)n1-c1ccccc1 [Idelalisib] + Cc1nc(Nc2ncc(C(=O)Nc3c(C)cccc3Cl)s2)cc(N2CCN(CCO)CC2)n1 [Dasatinib] (partner 0.075 µM)
How it was run: as §1

[3] = compound: Nc1nc2[nH]cc(CCc3ccc(C(=O)N[C@@H](CCC(=O)O)C(=O)O)cc3)c2c(=O)[nH]1 [Pemetrexed] + CS(=O)(=O)N1CCN(Cc2cc3nc(-c4cccc5[nH]ncc45)nc(N4CCOCC4)c3s2)CC1 [Pictilisib] (partner 1 µM)
How it was run: as §1

[4] = compound: CC[C@H](Nc1ncnc2[nH]cnc12)c1nc2cccc(F)c2c(=O)n1-c1ccccc1 [Idelalisib] + Cc1cc(Nc2cc(N3CCN(C)CC3)nc(Sc3ccc(NC(=O)C4CC4)cc3)n2)n[nH]1 [Tozasertib] (partner 0.1 µM)
How it was run: as §1

Cell Line	relative viability ([1]; first compound 0.002 µM)	relative viability ([1]; first compound 0.006325 µM)	relative viability ([1]; first compound 0.02 µM)	relative viability ([1]; first compound 0.06325 µM)	relative viability ([1]; first compound 0.2 µM)	relative viability ([2]; first compound 0.04 µM)	relative viability ([2]; first compound 0.1265 µM)	relative viability ([2]; first compound 0.4 µM)	relative viability ([2]; first compound 1.265 µM)	relative viability ([2]; first compound 4 µM)	relative viability ([3]; first compound 0.002 µM)	relative viability ([3]; first compound 0.006325 µM)	relative viability ([3]; first compound 0.02 µM)	relative viability ([3]; first compound 0.06325 µM)	relative viability ([3]; first compound 0.2 µM)	relative viability ([4]; first compound 0.04 µM)	relative viability ([4]; first compound 0.1265 µM)	relative viability ([4]; first compound 0.4 µM)	relative viability ([4]; first compound 1.265 µM)	relative viability ([4]; first compound 4 µM)
NCI-H2347	0.49	0.487	0.609	0.468	0.436	0.416	0.346	0.25	0.292	0.325	0.392	0.545	0.601	0.525	0.606	0.591	0.517	0.408	0.443	0.441
NCI-H2405	0.929	1.2	1.07	1.02	0.96	0.25	0.201	0.199	0.245	0.217	0.455	0.436	0.507	0.474	0.355	0.841	0.864	0.671	0.762	0.672
NCI-H3122	1.12	0.893	0.96	0.755	0.454	0.646	0.55	0.552	0.817	0.467	0.6	0.584	0.628	0.526	0.338	0.377	0.372	0.41	0.4	0.399
PC-3 [JPC-3]	0.628	1.15	0.837	0.922	0.782	0.814	0.973	0.908	0.879	0.892	0.625	0.687	0.821	0.743	0.663	0.966	0.913	0.853	0.901	0.715
PC-14	0.656	0.636	0.775	0.226	0.123	0.273	0.266	0.248	0.0361	0.223	0.663	0.618	0.642	0.321	0.133	0.638	0.603	0.557	0.6	0.553
RERF-LC-KJ	0.621	0.581	0.762	0.597	0.5	0.808	0.829	0.726	0.687	0.668	0.579	0.471	0.558	0.594	0.277	0.539	0.502	0.47	0.474	0.449
SK-LU-1	0.684	0.782	0.887	0.763	0.795	0.165	0.163	0.153	0.153	0.186	0.43	0.559	0.727	0.513	0.496	0.294	0.313	0.337	0.32	0.327
SK-MES-1	1.07	0.994	1.18	1.11	0.993	0.33	0.306	0.208	0.199	0.187	0.34	0.327	0.349	0.322	0.401	0.972	1.05	0.955	0.964	0.931
SW 1573	0.697	0.541	1.04	0.747	0.653	0.508	0.475	0.503	0.324	0.376	0.421	0.475	0.488	0.533	0.463	0.168	0.181	0.163	0.201	0.142
